Source: US10350210B2, “EGFR and ALK dual inhibitor” (PRECEDO PHARMACEUTICALS CO., LTD, priority 2015, dated 2019)

Experiments:
NCI-H1975 = assay: Growth of cancer cells (Cell Titer-Glo viability), NCI-H1975; type: cell-based; details: Homo sapiens; NCI-H1975 (EGFR L858R/T790M double mutant), 72 hrs
Description: (§1) By testing the effect of the novel kinase inhibitors on the proliferation of cancer cells, the selectivity of the compounds of the present disclosure in inhibiting the proliferation of cancer cells was further assessed. In this example, human non-small cell lung cancer cell NCI-H1975 (expressing EGFR L858R/T790M double mutant gene), human skin squamous carcinoma cell A431 (expressing wild-type EGFR gene), non-small cell lung cancer NCI-H3255 (expressing EGFR L858R mutant gene), non-small cell lung cancer cell NCI-H3122 (expressing ALK gene), human non-small cell lung cancer cell A549 (expressing wild-type EGFR gene), human non-small cell lung cancer cell NCI-H2122 (expressing wild-type EGFR gene), human non-small cell lung cancer cell NCI-H460 (expressing wild-type EGFR gene), human non-small cell lung cancer cell PC-9 (expressing EGFR delE746_A750 mutant gene), Chinese hamster ovary cell CHO (Cricetulus griseus, hamster, Chinese, ovary), Chinese hamster lung cell CHL, human non-small cell lung cancer cell HCC827 (expressing mutant EGFR del19 gene), human lung adenocarcinoma cell HCC4006 (expressing mutant EGFR del19 gene), human non-small cell lung cancer cell NCI-H2228 (expressing wild-type ALK gene), and mouse primary B cell BaF3 were used, and the above cells were all purchased from ATCC (US). In addition, mouse BaF3-TEL-ALK (stably expressing ALK kinase), mouse BaF3-ALK-F1174L (stably expressing mutant ALK F1174L kinase), mouse BaF3-NPM-ALK (stably expressing ALK kinase), mouse BaF3-TEL-EGFR (stably expressing EGFR kinase), mouse BaF3-TEL-EGFR-T790M (stably expressing EGFR T790M mutant kinase), mouse BaF3-FL-EGFR-Del19 (stably expressing EGFR delE746_A750 mutant kinase), mouse BaF3-TEL-EGFR-L858R (stably expressing EGFR L858R mutant kinase), mouse BaF3-FL-EGFR-T790M-L858R (stably expressing EGFR T790M/L858R mutant kinase), mouse BaF3-TEL-INSR (stably expressing INSR protein), mouse BaF3-TEL-IGF1R (stably expressing IGF1R Protein), mouse BaF3-EML4-ALK (stably expressing EML4-ALK Protein), mouse BaF3-TEL-JAK3 (stably expressing JAK3 kinase protein), mouse BaF3-TEL-CSF1R (stably expressing CSF1R protein), and mouse BaF3-TEL-ALK-F1196M (stably expressing ALK F1196M mutant kinase) were also used in this example. The above cell lines were all established by our laboratory via the following process: kinase proteins or protein domain sequences of human ALK, ALK F1174L, EGFR, EGFR T790M, EGFR delE746_A750, EGFR L858, EGFR T790M/L858R, INSR, IGF1R, EML4-ALK, JAK3, CSF1R, ALK F1196M were amplified respectively by PCR, and were respectively inserted into MSCV-Puro vector (Clontech) with N-terminal TEL fragments and/or NPM fragments and/or TPR fragments; the resultants were stably transfected into mouse BaF3 cells by the means of retrovirus, and the IL-3 growth factors were removed, and eventually the ALK, ALK F1174L, EGFR, EGFR T790M, EGFR delE746_A750, EGFR L858, EGFR T790M/L858R, INSR, IGF1R, EML4-ALK, JAK3, CSF1R, ALK F1196M-transferred protein dependent cell lines were obtained.
(§2) The number of viable cells was determined quantitatively by a microplate reader using Cell Titer-Glo® (Promega, US) chemiluminescence cell viability assay kit.

PC-9 = assay: Growth of cancer cells (Cell Titer-Glo viability), PC-9; type: cell-based; details: Homo sapiens; PC-9 (EGFR delE746_A750 mutant), 72 hrs
Description: as §1, §2

A431 = assay: Growth of cancer cells (Cell Titer-Glo viability), A431; type: cell-based; details: Homo sapiens, A-431; A431 (wild-type EGFR), 72 hrs; read-out: GI50
Description: as §1, §2

CHO = assay: Cell growth (Cell Titer-Glo viability), CHO; type: cell-based, Chinese hamster; details: Cricetulus griseus; CHO Chinese hamster ovary cell, 72 hrs; read-out: GI50
Description: as §1, §2

CHL = assay: Cell growth (Cell Titer-Glo viability), CHL; type: cell-based, Chinese hamster; details: Cricetulus griseus; CHL Chinese hamster lung cell, 72 hrs; read-out: GI50
Description: as §1, §2

NCI-H2122 = assay: Growth of cancer cells (Cell Titer-Glo viability), NCI-H2122; type: cell-based; details: Homo sapiens; NCI-H2122 (wild-type EGFR), 72 hrs
Description: as §1, §2

A549 = assay: Growth of cancer cells (Cell Titer-Glo viability), A549; type: cell-based; details: Homo sapiens; A549 (wild-type EGFR), 72 hrs
Description: as §1, §2

HCC827 = assay: Growth of cancer cells (Cell Titer-Glo viability), HCC827; type: cell-based; details: Homo sapiens; HCC827 (mutant EGFR del19), 72 hrs
Description: as §1, §2

HCC4006 = assay: Growth of cancer cells (Cell Titer-Glo viability), HCC4006; type: cell-based; details: Homo sapiens; HCC4006 (mutant EGFR del19), 72 hrs
Description: as §1, §2

NCI-H3122 = assay: Growth of cancer cells (Cell Titer-Glo viability), NCI-H3122; type: cell-based; details: Homo sapiens; NCI-H3122 (expressing ALK gene), 72 hrs; read-out: GI50
Description: as §1, §2

NCI-H2228 = assay: Growth of cancer cells (Cell Titer-Glo viability), NCI-H2228; type: cell-based; details: Homo sapiens; NCI-H2228 (wild-type ALK), 72 hrs
Description: as §1, §2

BaF3 = assay: Cell growth (Cell Titer-Glo viability), BaF3; type: cell-based; details: BaF3 mouse primary B cell, 72 hrs
Description: as §1, §2

BaF3-TEL-ALK = assay: Cell growth (Cell Titer-Glo viability), BaF3-TEL-ALK; type: cell-based; details: Mus musculus; BaF3-TEL-ALK (stably expressing ALK kinase), 72 hrs
Description: as §1, §2

BaF3-ALK-F1174L = assay: Cell growth (Cell Titer-Glo viability), BaF3-ALK-F1174L; type: cell-based; details: Mus musculus; BaF3-ALK-F1174L (mutant ALK F1174L kinase), 72 hrs
Description: as §1, §2

BaF3-TEL-EGFR-T790M = assay: Cell growth (Cell Titer-Glo viability), BaF3-TEL-EGFR-T790M; type: cell-based; details: Mus musculus; BaF3-TEL-EGFR-T790M (EGFR T790M mutant kinase), 72 hrs
Description: as §1, §2

BaF3-FL-EGFR-Del19 = assay: Cell growth (Cell Titer-Glo viability), BaF3-FL-EGFR-Del19; type: cell-based; details: Mus musculus; BaF3-FL-EGFR-Del19 (EGFR delE746_A750 mutant kinase), 72 hrs
Description: as §1, §2

NCI-H460 = assay: Growth of cancer cells (Cell Titer-Glo viability), NCI-H460; type: cell-based; details: Homo sapiens; NCI-H460 (wild-type EGFR), 72 hrs
Description: as §1, §2

NCI-H3255 = assay: Growth of cancer cells (Cell Titer-Glo viability), NCI-H3255; type: cell-based; details: Homo sapiens; NCI-H3255 (EGFR L858R mutant), 72 hrs
Description: as §1, §2

BaF3-NPM-ALK = assay: Cell growth (Cell Titer-Glo viability), BaF3-NPM-ALK; type: cell-based; details: Mus musculus; BaF3-NPM-ALK (stably expressing ALK kinase), 72 hrs
Description: as §1, §2

BaF3-TEL-EGFR = assay: Cell growth (Cell Titer-Glo viability), BaF3-TEL-EGFR; type: cell-based; details: Mus musculus; BaF3-TEL-EGFR (stably expressing EGFR kinase), 72 hrs
Description: as §1, §2

SMILES | GI50 (NCI-H1975) | GI50 (PC-9) | GI50 (A431) | GI50 (CHO) | GI50 (CHL) | GI50 (NCI-H2122) | GI50 (A549) | GI50 (HCC827) | GI50 (HCC4006) | GI50 (NCI-H3122) | GI50 (NCI-H2228) | GI50 (BaF3) | GI50 (BaF3-TEL-ALK) | GI50 (BaF3-ALK-F1174L) | GI50 (BaF3-TEL-EGFR-T790M) | GI50 (BaF3-FL-EGFR-Del19) | GI50 (NCI-H460) | GI50 (NCI-H3255) | GI50 (BaF3-NPM-ALK) | GI50 (BaF3-TEL-EGFR)
C=CC(=O)Nc1cc(Nc2ncc(Cl)c(Nc3ccccc3S(=O)(=O)C(C)C)n2)c(OC)cc1N1CCN(C(=O)OC(C)(C)C)CC1 [Compound 3, tert-butyl 4-(2-acrylamido-4-(5-chloro-4-(2-(isopropylsulfonyl)phenylamino)pyrimidin-2-ylamino)-5-methoxyphenyl)piperazine-1-carbonate] | 380 nM | 250 nM | 1200 nM | > 10000 nM | > 10000 nM | 710 nM | > 10000 nM | 370 nM | 1100 nM | 32 nM | 560 nM | 4700 nM | 24 nM | 1300 nM | 290 nM | 130 nM |  |  |  | 
CCC(=O)Nc1cc(Nc2ncc(Cl)c(Nc3ccccc3S(=O)(=O)C(C)C)n2)c(OC)cc1N1CCC(N2CCN(C)CC2)CC1 [Compound 30, N-(5-(5-chloro-4-(2-(isopropylsulfonyl)phenylamino)pyrimidin-2-ylamino)-4-methoxy-2-(4-(4-methylpiperazin-1-yl)piperidin-1-yl)phenyl)propionamide] | 880 nM | 53 nM | 840 nM | 1900 nM | 730 nM | 150 nM |  | 150 nM | 260 nM | < 0.3 nM | 280 nM | 470 nM | < 0.3 nM | 73 nM | 230 nM | 120 nM | 440 nM | 640 nM | < 3 nM | 410 nM
COc1cc(N2CCC(N3CCN(C)CC3)CC2)ccc1Nc1ncc(Cl)c(Nc2ccccc2S(=O)(=O)C(C)C)n1 [TAE-684, reference compound] |  | 540 nM | 1300 nM |  |  | 310 nM | 1500 nM | 370 nM | 440 nM | < 0.3 nM | 580 nM |  | < 0.3 nM | 140 nM | 420 nM |  | 470 nM | 1000 nM | < 3 nM | 560 nM
C=CC(=O)Nc1cc(Nc2ncc(Cl)c(Nc3ccccc3S(=O)(=O)C(C)C)n2)c(OC)cc1N1CCC(N2CCN(C)CC2)CC1 [Compound 8, N-(5-(5-chloro-4-(2-(isopropylsulfonyl)phenylamino)pyrimidin-2-ylamino)-4-methoxy-2-(4-(4-methylpiperazin-1-yl)piperidin-1-yl)phenyl)acrylamide] | 45 nM | 53 nM | 370 nM | 460 nM | 800 nM | 200 nM |  | 2.7 nM | 14 nM | < 0.3 nM | 350 nM | 460 nM | < 0.3 nM | 29 nM | 46 nM | 2 nM | 660 nM | 110 nM | < 3 nM | 430 nM
